Data reported in paper PMC7347136 (PLoS ONE, 2020).
Read-outs that look alike come from different tables or passages of the source.

Legend:
THP-1 = experiment: Resazurin reduction cell viability assay; assay type: cell-based, human; details: Homo sapiens, THP-1, 72 h, THP-1; value the 7 x 7 combination matrix spans; 72 h; read-out: IC50 value of each compound (single agent)
Protocol: (§1) Solid tumor cell lines were seeded in 100 μl medium into 96-well plates at an appropriate cell number determined by a cell dilution assay (Cal51–2000 cells/well; Colo205, MCF10A and 184A1–3000 cells/well and MDA-MB-468, HCC1954–4000 cells/well). AML suspension cells were seeded in 96-well plates at approximately 3000 cells per well. Cells were incubated overnight at 37°C, 5% CO2. The following day, 100 μl fresh medium containing increasing concentrations of appropriate compound was added and the cells were incubated for up to 72 h at 37°C, 5% CO2. For pulse treatment of solid (adherent) tumor cell lines, medium was aspirated and replaced with fresh drug-free medium. For pulse treatment of suspension lines, plates were centrifuged at 478 xg for 5 min at the end of the incubation period with compound, medium containing compound was carefully aspirated and replaced with fresh compound-free medium. A total of 72 h after the start of treatment, 20 μl of a 10X stock of resazurin sodium salt (Sigma-Aldrich, Dorset, UK) prepared in medium was added to the cells and incubated for up to 3 h. […] was measured on the Wallac Victor plate reader (Cambridge, UK) at 544–595 nm. IC50/70/90 calculations were determined in XLFit.

Colo205 = experiment: Resazurin reduction cell viability assay; assay type: cell-based, human; details: 72 h continuous treatment, read-out: Colo205 IC50 ± SD
Protocol: as §1

[1] = tested on: subcutaneous EOL-1 tumors; experiment: EOL-1 human eosinophilic leukemia xenograft model; assay type: in vivo, SCID mice
Protocol: Female athymic CB-17 SCID (Harlan Sprague-Dawley) mice between 6–7 weeks of age weighing approximately 22 grams were housed in a 12-h light-dark cycle at 70–74°F (21–23°C) and 40–60% humidity. Animals were fed water ad libitum (reverse osmosis, 2 ppm Cl2) and an irradiated standard rodent diet (Teklad 2919) consisting of 19% protein, 9% fat, and 4% fiber. Mice were injected subcutaneously into the right flank with 1x10^7 EOL-1 cells in 100 μl of a 1:1 HBSS:Matrigel solution. When tumors reached approximately 125–250 mm^3, animals were matched by tumor volume and then randomized into treatment and control groups before dosing was initiated. […] Cytarabine, also known as cytosine arabinoside (AraC), was administered by daily ip injection for 5 days only. Agent toxicity was assessed by effects on body weight and clinical signs. Animals were weighed twice weekly using a digital scale (Ohaus SP601). Beginning on Day 0, tumor dimensions were measured twice weekly by digital caliper (Fowler Ultra-Cal IV); tumor volume was calculated using the formula TV = width^2 x length x 0.52. […] Statistical differences in tumor volume were determined using a two-tailed One-Way Analysis of Variance (ANOVA) followed by the Dunnett’s multiple comparisons test comparing treated groups with control. For animal welfare the following methods were used: (a) methods of sacrifice: isoflurane anesthesia followed by cervical dislocation; (b) methods of anesthesia and/or analgesia: isoflurane anesthesia and (c) efforts to alleviate suffering: carprofen if animal veterinarian decides necessary or euthanasia.

SMILES	IC50 (THP-1)	IC50 (Colo205; Homo sapiens, COLO 205, 72 h)	further results
CN1CC[C@H](c2c(O)cc(O)c3c(=O)cc(-c4ccccc4Cl)oc23)[C@H](O)C1 [Alvocidib (flavopiridol), reference compound]	–	129 nM	IC50 (Colo205): 130 ± 20 nM
Nc1ccn([C@@H]2O[C@H](CO)[C@@H](O)[C@@H]2O)c(=O)n1 [cytarabine, cytosine arabinoside, reference compound]	–	–	transient body weight loss ([1]; 100 mg/kg i.p.): 3%; tumor growth inhibition (TGI) ([1]; 100 mg/kg i.p. days 1-5, Day 19): 38%; median TGI ([1]; 100 mg/kg i.p. days 1-5, day 9): 41%

More lines, main results first:

IC50 (THP-1)	IC50 (Colo205; Homo sapiens, COLO 205, 72 h)	SMILES	further results
60 nM	–	CC1(C)CCC(CN2CCN(c3ccc(C(=O)NS(=O)(=O)c4ccc(NCC5CCOCC5)c([N+](=O)[O-])c4)c(Oc4cnc5[nH]ccc5c4)c3)CC2)=C(c2ccc(Cl)cc2)C1 [ABT-199, reference compound]	–
270 nM	–	CC1(C)CCC(c2ccc(Cl)cc2)=C(CN2CCN(c3ccc(C(=O)NS(=O)(=O)c4ccc(N[C@H](CCN5CCOCC5)CSc5ccccc5)c(S(=O)(=O)C(F)(F)F)c4)cc3)CC2)C1 [ABT-263, reference compound]	–
430 nM	–	CN(C)CC[C@H](CSc1ccccc1)Nc1ccc(S(=O)(=O)NC(=O)c2ccc(N3CCN(Cc4ccccc4-c4ccc(Cl)cc4)CC3)cc2)cc1[N+](=O)[O-] [ABT-737, reference compound]	–
–	820 nM	CC[C@H](Nc1nc(NCc2cccnc2)c2ncn(C(C)C)c2n1)[C@@H](C)O [CCT068127]	–
